The results in this text go back to ChEMBL document CHEMBL1133912, “Coupling of the antennapedia third helix to a potent antagonist of the p53/hdm2 protein-protein interaction” (Bioorg Med Chem Lett, 2001).

The nature of the assay: In vitro inhibition of binding towards of human wild-type p53 to GST-hdm2.

Square brackets hold non-standard residues; d marks the D form. Peptide text beside a SMILES is read from it. Trp(6-Cl) = N[C@@H](Cc1c[nH]c2cc(Cl)ccc12)C(=O)O; Pmp = N[C@@H](Cc1ccc(CP(=O)(O)O)cc1)C(=O)O; Ac3c = NC1(C(=O)O)CC1; Aib = CC(C)(N)C(=O)O

In the case of `CSCC[C@H](NC(=O)[C@H](Cc1ccccc1)NC(C)=O)C(=O)NC(C)(C)C(=O)N[C@@H](Cc1ccc(CP(=O)(O)O)cc1)C(=O)N[C@@H](C)C(=O)N[C@@H](CCC(=O)O)C(=O)NC1(C(=O)N[C@@H](CC(C)C)C(N)=O)CC1` (Ac-FM[Aib][Pmp]AE[Ac3c]L-NH2), the half-inhibitory concentration (IC50) is over 2000 nM.

Compound `CSCC[C@H](NC(=O)[C@H](Cc1ccccc1)NC(C)=O)C(=O)NC(C)(C)C(=O)N[C@@H](Cc1ccc(CP(=O)(O)O)cc1)C(=O)N[C@@H](Cc1c[nH]c2cc(Cl)ccc12)C(=O)N[C@@H](CCC(=O)O)C(=O)NC1(C(=O)N[C@@H](CC(C)C)C(N)=O)CC1` (Ac-FM[Aib][Pmp][Trp(6-Cl)]E[Ac3c]L-NH2) registered an IC50 of 5 nM.

One may read the IC50 as the concentration at which inhibition is half-maximal.
